Experiments:
healthy human skin [1] = assay: Skin roughness by profilometry (mean depth of roughness Rz) on volar forearms, 7 days of treatment then SDS irritation; type: in vivo; set-up: unit not given here
Description: Roughness was measured by profilometry using a stylus instrument (OFR 01; Romano GmbH, Cologne, Germany). Silicon impressions from the test areas of the volar forearm were prepared. The dental mass Silasoft N® (Detax-K. Huber K.G., Karlsruhe, Germany) was used for making the impressions. The parameter mean depth of roughness Rz (DIN 4768/1) was measured. By convention the scan length was divided into […] equal-sized areas. In each area the distance from the highest peak to the lowest trough was established. The average of these five distances is Rz.
(§1) Two panels of each five female volunteers at the age of 19-55 years with healthy skin were included in the test.
(§2) Measurements were carried out at a temperature of 22±1°C and a relative humidity of 60±10%. Subjects were accustomed to ambient conditions for 20 min prior to any measurement. The test was carried out on the volar forearms. Initially untreated skin was measured in all six areas to find baseline values. Then the five test products were applied, one area remained untreated. The dose of applicaton was about 2 mg/cm^2. In the following 7 days a home application in the morning and evening took place. Measurements were evaluated during the treatment period on day 7 two hours after the last daily application. Then the test areas on both forearms were treated with a 5% aqueous solution of sodium lauryl sulphate (SDS) and an occlusive dressing applied to induce skin irritation. The dressing was removed two hours later, and the regions were gently washed with water and air-dried. After one hour the measurements were done when the level had stabilised.
(§3) Use of other cosmetic products was restricted on the test areas throughout the whole study.
(§4) • before start treatment; • two hours after last application on day 7; • 1 hour after irritation with SDS (2 hours under occlusion).

healthy human skin [2] = assay: Desquamation: dansyl chloride fluorescence extraction score on volar forearms, 7 days of treatment then SDS irritation; type: in vivo
Description: The stratum corneum was stained with dansyl chloride. Dansyl chloride was mixed to homogeneity at 5% (w/w) in petrolatum and applied to the volar forearms of the volunteers under semi-occlusive tape, one day before the beginning of the study. After 24 h the patches were removed and any excess material wiped off under running tape water. Fluorescence was assessed under UV illumination for intensity and homogeneity by a trained evaluator using the following scale for fluorescence extraction: • 0 : no fluorenscence extraction • 1 : slight fluorescence extraction • 2 : moderate fluorescence extraction • 3 : strong fluorescence extraction • 4 : complete fluorescence extraction. Half scores were used when needed.
as §1, §2, §3, §4

[3] = tested on: barrier function of the skin; assay: Trans-epidermal water loss (TEWL, Tewameter) on volar forearms, 7 days of treatment then SDS irritation; type: in vivo, human; set-up: unit not given here
Description: Measurements of trans-epidermal water loss (TEWL) were performed with the Tewameter (Courage & Khazaka, Cologne, Germany). The Tewameter is a device for measurement of water evaporation on skin surfaces based on the diffusion principle discovered by A. Fick in 1885.
as §1, §2, §3, §4

[4] = tested on: barrier function of the skin; assay: Skin colour by chromametry (Minolta Chromameter CR 300) on volar forearms, 7 days of treatment then SDS irritation; type: in vivo, human; set-up: key: CIE a* value (green-red axis); higher = redder skin
Description: Skin colour was measured by chromametry with a Minolta Chromameter CR 300 (Minolta, Ahrensburg, Germany) in compliance with the Commission International de l'eclairage (CIE) system, according to which the registration of colour is adjusted to the non-linear colour sensitivity of human eye. A colour is expressed in a three-dimensional coordinate system with green-red (a*), yellow-blue (b*) and L* axes (brightness). The skin surface is illuminated by a Xenon flash light and remitted light registered and analysed by a photoreceiver. Chromametry is sensitive and accurate for the characterization of redness of skin irritation. In inflamed skin a positive change on the a* axis is observed, towards red. Each value was the average of three recordings.
as §1, §2, §3, §4

[5] = 0.05% in oil-in-water emulsion, 7 days pretreatment, after SDS (5% aqueous, 2 h occlusion, measured 1 h later)
[6] = 0.05% in oil-in-water emulsion, about 2 mg/cm^2 morning and evening, after 7 days
[7] = 0.05% in oil-in-water emulsion, day 0 (baseline before start of treatment)
[8] = 0.2% in oil-in-water emulsion, 7 days pretreatment, after SDS (5% aqueous, 2 h occlusion, measured 1 h later)
[9] = 0.2% in oil-in-water emulsion, about 2 mg/cm^2 morning and evening, after 7 days
[10] = 0.2% in oil-in-water emulsion, day 0 (baseline before start of treatment)
[11] = 0.5% in oil-in-water emulsion, 7 days pretreatment, after SDS (5% aqueous, 2 h occlusion, measured 1 h later)
[12] = 0.5% in oil-in-water emulsion, about 2 mg/cm^2 morning and evening, after 7 days
[13] = 0.5% in oil-in-water emulsion, day 0 (baseline before start of treatment)
[14] = 0.05% in oil-in-water emulsion, 7 days pretreatment, after SDS (5% aqueous, 2 h occlusion), scale 0 to 4
[15] = 0.05% in oil-in-water emulsion, morning and evening, after 7 days, scale 0 (no) to 4 (complete fluorescence extraction)
[16] = 0.05% in oil-in-water emulsion, day 0 (baseline), scale 0 (no) to 4 (complete fluorescence extraction)
[17] = 0.2% in oil-in-water emulsion, 7 days pretreatment, after SDS (5% aqueous, 2 h occlusion), scale 0 to 4
[18] = 0.2% in oil-in-water emulsion, day 0 (baseline), scale 0 (no) to 4 (complete fluorescence extraction)
[19] = 0.5% in oil-in-water emulsion, 7 days pretreatment, after SDS (5% aqueous, 2 h occlusion), scale 0 to 4
[20] = 0.5% in oil-in-water emulsion, day 0 (baseline), scale 0 (no) to 4 (complete fluorescence extraction)

Row | SMILES | Skin roughness (healthy human skin [1]; [5]) | Skin roughness (healthy human skin [1]; [6]) | Skin roughness (healthy human skin [1]; [7]) | Skin roughness (healthy human skin [1]; [8]) | Skin roughness (healthy human skin [1]; [9]) | Skin roughness (healthy human skin [1]; [10]) | Skin roughness (healthy human skin [1]; [11]) | Skin roughness (healthy human skin [1]; [12]) | Skin roughness (healthy human skin [1]; [13]) | Desquamation (fluorescence extraction) (healthy human skin [2]; [14]) | Desquamation (fluorescence extraction) (healthy human skin [2]; [15]) | Desquamation (fluorescence extraction) (healthy human skin [2]; [16]) | Desquamation (fluorescence extraction) (healthy human skin [2]; [17]) | Desquamation (fluorescence extraction) (healthy human skin [2]; [18]) | Desquamation (fluorescence extraction) (healthy human skin [2]; [19]) | Desquamation (fluorescence extraction) (healthy human skin [2]; [20]) | TEWL [3, 5] | TEWL [3, 6] | TEWL [3, 7] | TEWL [3, 8] | also measured
1 | CCCCCCCCCCCCCC[C@@H](O)[C@@H](O)[C@H](CO)NC(=O)[C@H](C)O [Cer6/OH-C3, N-[(S)-2-hydroxypropanoyl]-phytosphingosine] | 96.9 ± 8.1 | 109.1 ± 16.4 | 131.2 ± 15.5 | 92.9 ± 9.7 | 91.9 ± 9.9 | 104.7 ± 9 | 116.5 ± 14.8 | 112.9 ± 15.2 | 131.1 ± 15.2 | 0,8 ± 0,4 | 0,2 ± 0,4 | 0 | 1 ± 0 | 0 | 1 ± 0 | 0 | 16.6 ± 5.2 | 8.2 ± 3.5 | 5 ± 1.1 | 13.5 ± 6 | Desquamation (fluorescence extraction) (healthy human skin [2]; 0.2% in oil-in-water emulsion, morning and evening, after 7 days, scale 0 (no) to 4 (complete fluorescence extraction)): 0,2 ± 0,4; TEWL [3, 9]: 7.2 ± 1.6; TEWL [3, 10]: 6.1 ± 1.5; TEWL [3, 11]: 11.6 ± 3.3; TEWL [3, 12]: 8 ± 1.9; TEWL [3, 13]: 6 ± 1.2; skin colour [4, 5]: 13.1 ± 1.8; skin colour [4, 6]: 7.6 ± 0.8; skin colour [4, 7]: 6.7 ± 0.4; skin colour [4, 8]: 11.4 ± 0.6; skin colour [4, 9]: 8.5 ± 0.9; skin colour [4, 10]: 7.8 ± 0.9; skin colour [4, 11]: 9.5 ± 1.3; skin colour [4, 12]: 8.7 ± 0.7; skin colour [4, 13]: 8.2 ± 0.5
2 | CCCCCCCCCCCCCC[C@@H](O)[C@@H](O)[C@H](CO)NC(=O)C(O)CCCCCC (stereo partly shown) [Cer6/OH-C8, N-(2-hydroxyoctanoyl)-phytosphingosine] | 121.8 ± 11.6 | 119.1 ± 8.8 | 133.6 ± 12.5 | 118.7 ± 7.6 | 118.5 ± 8.2 | 147.1 ± 15.5 | 82.2 ± 7.1 | 98 ± 6.9 | 111.2 ± 6 | 0.8 ± 0.4 | 0,4 ± 0,5 | 0 | 0,8 ± 0,4 | 0 | 1 ± 0 | 0 | 14.7 ± 4.2 | 5.7 ± 1.9 | 5.7 ± 1.3 | 10.12 ± 1.9 | Desquamation (fluorescence extraction) (healthy human skin [2]; 0.5% in oil-in-water emulsion, morning and evening, after 7 days, scale 0 (no) to 4 (complete fluorescence extraction)): 0,4 ± 0,5; TEWL [3, 9]: 5.5 ± 1.6; TEWL [3, 10]: 5.4 ± 0.7; TEWL [3, 11]: 13 ± 4.4; TEWL [3, 12]: 7.9 ± 2.7; TEWL [3, 13]: 6.5 ± 2.2; skin colour [4, 5]: 9.2 ± 0.8; skin colour [4, 6]: 6.2 ± 1.2; skin colour [4, 7]: 7 ± 1.2; skin colour [4, 8]: 8.4 ± 0.5; skin colour [4, 9]: 6.3 ± 0.7; skin colour [4, 10]: 6.8 ± 0.5; skin colour [4, 11]: 10.2 ± 0.9; skin colour [4, 12]: 8.3 ± 1.1; skin colour [4, 13]: 6.5 ± 0.6
